Assay: Observation of the crystals using a scanning electron microscope; measurement of the crystal thickness
Type: physicochemical
Settings: scanning electron microscope image
Protocol: The ascorbic acid crystals contained in the ascorbic acid dispersion material of the present invention obtained in Examples 1 to 3 were observed using a scanning electron microscope. 3. 5 mL of the ascorbic acid dispersion material of the present invention obtained in Examples 1 to 3 as an analyte and 0.5 g of commercially available ascorbic acid crystal powder were both infused into 20 mL of the dispersion medium prepared in 2, lightly shaken, and mixed. 6. The operations of 4 and 5 were further carried out to remove the solvent component of the ascorbic acid dispersion material of the present invention, following which the operation of 4 was further carried out to precipitate particles of the ascorbic acid, and remove the supernatant, and the particles were dried at a low temperature to obtain particulate powder. […]

- Crystal shape: indeterminate crystal shape
SMILES: O=C1O[C@H]([C@@H](O)CO)C(O)=C1O [ascorbic acid crystal powder, ascorbic acid]
